From BindingDB's records for doi:10.1124/mol.64.6.1295 (Glaxosmithkline, 2003)
Structures can show the parent of a compound that is named as a salt.

Experiments:
[1] = molecular target: 5-hydroxytryptamine receptor 6 (Mus musculus, UniProt Q9R1C8)
[2] = molecular target: 5-hydroxytryptamine receptor 6 (Rattus norvegicus, UniProt P31388)
[3] = molecular target: 5-hydroxytryptamine receptor 6 (Homo sapiens, UniProt P50406)
Sequence of 5-hydroxytryptamine receptor 6 (Homo sapiens, UniProt P50406) (P50406 whole entry): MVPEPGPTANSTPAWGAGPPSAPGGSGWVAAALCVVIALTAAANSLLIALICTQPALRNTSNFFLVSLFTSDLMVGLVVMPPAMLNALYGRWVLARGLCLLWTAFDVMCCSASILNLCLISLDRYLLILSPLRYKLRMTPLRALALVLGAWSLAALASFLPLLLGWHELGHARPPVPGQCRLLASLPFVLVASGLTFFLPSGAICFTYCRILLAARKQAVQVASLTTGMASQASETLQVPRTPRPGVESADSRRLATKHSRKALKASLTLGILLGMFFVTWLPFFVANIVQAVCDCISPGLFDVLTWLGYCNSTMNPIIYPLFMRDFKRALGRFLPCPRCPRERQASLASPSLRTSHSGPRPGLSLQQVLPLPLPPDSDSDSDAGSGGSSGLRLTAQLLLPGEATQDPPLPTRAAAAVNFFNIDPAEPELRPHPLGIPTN

Sequence of 5-hydroxytryptamine receptor 6 (Rattus norvegicus, UniProt P31388) (P31388 whole entry): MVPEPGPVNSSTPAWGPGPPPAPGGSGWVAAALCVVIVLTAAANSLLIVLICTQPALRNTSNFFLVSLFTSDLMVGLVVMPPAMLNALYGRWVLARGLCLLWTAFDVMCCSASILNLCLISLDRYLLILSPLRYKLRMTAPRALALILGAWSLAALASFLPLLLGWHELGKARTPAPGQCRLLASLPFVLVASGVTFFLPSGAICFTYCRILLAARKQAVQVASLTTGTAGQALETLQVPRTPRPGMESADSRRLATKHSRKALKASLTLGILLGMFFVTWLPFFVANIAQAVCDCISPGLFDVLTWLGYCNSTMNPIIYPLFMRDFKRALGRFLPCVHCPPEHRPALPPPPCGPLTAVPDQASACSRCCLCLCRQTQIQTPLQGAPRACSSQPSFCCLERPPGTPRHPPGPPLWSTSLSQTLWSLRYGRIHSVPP
Sequence of 5-hydroxytryptamine receptor 6 (Mus musculus, UniProt Q9R1C8) (Q9R1C8 whole entry): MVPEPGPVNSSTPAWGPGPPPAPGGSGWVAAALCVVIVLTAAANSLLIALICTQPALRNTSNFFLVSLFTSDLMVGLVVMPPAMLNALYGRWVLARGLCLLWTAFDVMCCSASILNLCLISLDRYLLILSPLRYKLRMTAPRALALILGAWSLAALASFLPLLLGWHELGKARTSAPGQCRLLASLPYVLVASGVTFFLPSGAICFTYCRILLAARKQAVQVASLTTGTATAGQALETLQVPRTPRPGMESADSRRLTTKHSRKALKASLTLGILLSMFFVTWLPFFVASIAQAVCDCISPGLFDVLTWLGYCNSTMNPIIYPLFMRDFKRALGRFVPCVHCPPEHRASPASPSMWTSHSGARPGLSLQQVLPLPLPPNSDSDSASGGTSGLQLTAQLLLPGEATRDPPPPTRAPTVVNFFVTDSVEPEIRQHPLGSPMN

Compound | Ki [1] | Ki [2] | Ki [3]
COc1ccc(NS(=O)(=O)c2sc3ccc(Cl)cc3c2C)cc1N1CCNCC1 | 1.23 nM | 0.71 nM | 
CN(C)CCC=C1c2ccccc2CCc2ccccc21 | 89.1 nM | 182 nM | 141 nM
COc1ccc(NS(=O)(=O)c2ccc(Br)cc2)cc1N1CCN(C)CC1 | 22.9 nM | 4.79 nM | 2.82 nM
CN1CCN(C2=c3ccccc3=Nc3ccc(Cl)cc3N2)CC1 [6-chloro-10-(4-methylpiperazin-1-yl)-2,9-diazatricyclo[9.4.0.0^{3,8}]pentadeca-1,3(8),4,6,10,12,14-heptaene] | 6.46 nM |  | 
CN1CCN2c3ccccc3Cc3ccccc3C2C1 (stereo not drawn) [MIANSERIN HYDROCHLORIDE] | 3.24 nM |  | 
COc1ccc(S(=O)(=O)Nc2cc(Br)cc(F)c2Br)cc1N1CCNCC1 [N-(2,5-dibromo-3-fluorophenyl)-4-methoxy-3-(piperazin-1-yl)benzenesulfonamide] | 61.7 nM | 1.41 nM | 
CCN(CC)C(=O)C1C=C2c3cccc4[nH]cc(c34)CC2N(C)C1 (stereo not drawn) [NSC_3981] | 2.82 nM | 2.63 nM | 
CNc1cc(NS(=O)(=O)c2ccc(N)cc2)nc(NC)n1 [Ro-04-6790] | > 10000 nM | 28.8 nM | 51.3 nM
COc1ccc(NS(=O)(=O)c2sc3ccc(Cl)cc3c2C)cc1N1CCN(C)CC1 [SB-258510] | 1 nM | 0.76 nM | 
COc1ccc(NS(=O)(=O)c2ccc(I)cc2)cc1N1CCN(C)CC1 [SB-258585] | 11.2 nM | 2.29 nM | 
CNS(=O)(=O)Cc1ccc2[nH]cc(CCN(C)C)c2c1 [Sumax] | 5620 nM | > 10000 nM | > 10000 nM
NCCc1c[nH]c2ccc(O)cc12 [[3H]-5-HT] | 95.5 nM | 79.4 nM | 
CSc1ccc2c(c1)C(N1CCN(C)CC1)Cc1ccccc1S2 (stereo not drawn) [methanesulfonic acid;1-methyl-4-(3-methylsulfanyl-5,6-dihydrobenzo[b][1]benzothiepin-5-yl)piperazine] | 0.56 nM |  | 
COc1ccc2[nH]cc(CCN)c2c1 [tryptamine, 5-Methoxy] |  | 22.4 nM | 
